Values after ≈ are worked out from the molar mass of the structure shown.
How the values were obtained:
[1] = system: MGC 803 (human gastric cancer cell); test: Solid tumor cell growth inhibition, MTT, 72 h (Example 7); type: cell-based; details: Homo sapiens
Method: (§1) Human solid tumor cell lines: Hep-2 (laryngeal carcinoma), A549 (human lung cancer), CaES-17 (esophageal cancer cell), PC-3 (prostate cancer), CNE (nasopharyngeal carcinoma cell) and SK-OV-3 (ovarian cancer cell), all of which are purchased from China Center For Type Culture Collection; RKO (human colon adenocarcinoma cell), MGC 803 (human gastric cancer cell), MG63 (osteosarcoma), and U87 MG (malignant glioma cell), all of which are purchased from Fuxiang Bio-tech Co. Ltd., Shanghai, China; PANC-1 (pancreatic cancer), Huh? (human liver cancer cell), Becap37 (human breast cancer cell), and Hela (human cervical cancer cell), all of which are donated by Cancer Research Institute of Zhejiang University, China.
(§2) Reagents: the same as in Example 5.
(§3) Obtaining 4000 well-growing human solid tumor cells and inoculating them into wells of a 96-well cell culture plate. The culture medium is DMEM High Glucose cell culture medium containing 10% fetal bovine serum. The plate is placed in a carbon dioxide cell incubator (5% CO2) at 37° C. and incubated for 24 hours. After been added with tetrandrine derivatives of different concentration and mixing uniformly, the plate is placed in a carbon dioxide cell incubator (5% CO2) at 37° C. and incubated for 72 hours. Then the viable cell concentration is determined by the MTT method and the cell viability (%) after drug treatment is calculated. In this experiment, the cell viability of control group (not treated with any compound) is set as 100%.

[2] = system: Becap37 (human breast cancer cell); test: as above; type: cell-based; details: Homo sapiens; 72 h, MTT, Becap-37
Method: as §1, §2, §3

A549 (human lung cancer) = test: as above; type: cell-based; details: Homo sapiens; 72 h, MTT, A549
Method: as §1, §2, §3

[3] = system: Huh7 (human liver cancer cell); test: as above; type: cell-based; details: Homo sapiens; 72 h, MTT, Huh-7
Method: as §1, §2, §3

[4] = system: RPMI8226 (multiple myeloma); test: Multiple myeloma cell growth inhibition, MTT, 72 h (Example 6); type: cell-based, human; details: Homo sapiens, RPMI-8226; 72 h, MTT, RPMI8226
Method: Multiple myeloma and lymphoma cell lines: RPMI8226 (multiple myeloma), purchased from Fuxiang Bio-tech Co. Ltd., Shanghai, China.
as §2
(§4) Obtaining 6000 well-growing leukemia cells and inoculating them into wells of a 96-well cell culture plate. The culture medium is a 1640 cell culture medium containing 10% fetal bovine serum. After adding the tetrandrine derivatives of different concentrations and mixing uniformly, placing the plate in a carbon dioxide cell incubator (5% CO2) at 37° C. and incubated for 72 hours. Then the viable cell concentration is determined by the MTT method.

[5] = system: H9 (acute lymphoblastic leukemia, ALL); test: Leukemia cell growth inhibition, MTT, 72 h (Example 5); type: cell-based, human; details: Homo sapiens; 72 h, MTT
Text: (§5) Leukemia cell lines: leukemia cell lines: K562/adr (drug-resistant, chronic myeloid leukemia, CML), NB4 (acute promyelocytic leukemia, AML), Kasumi-1 (acute myeloid leukemia M2 type, AML-M2), Jurkat (acute lymphoblastic leukemia, ALL), all of which are donated by Cancer Research Institute of Zhejiang University, China; and H9 (acute lymphoblastic leukemia, ALL), which is purchased from China Center for Type Culture Collection.
(§6) Reagents: The standard sample of tetrandrine (TTD) is purchased from Ci Yuan Biotechnology Co., Ltd., Shaanxi, China; and the 5-substituted tetrandrine derivatives of the present invention.
as §4, with “incubating” for “incubated”

[6] = system: K562/adr (drug-resistant, chronic myeloid leukemia, CML); test: as above; type: cell-based, human; details: Homo sapiens, K562/Adr; 72 h, MTT
Text: as §5, §6
as §4, with “incubating” for “incubated”

[7] = system: Kasumi-1 (acute myeloid leukemia M2 type, AML-M2); test: as above; type: cell-based, human; details: Homo sapiens, Kasumi 1
Text: as §5, §6
as §4, with “incubating” for “incubated”

[8] = system: Jurkat (acute lymphoblastic leukemia, ALL); test: as above; type: cell-based, human; details: Homo sapiens, Jurkat; 72 h, MTT
Text: as §5, §6
as §4, with “incubating” for “incubated”

PC-3 (prostate cancer) = test: Solid tumor cell growth inhibition, MTT, 72 h (Example 7); type: cell-based, human; details: Homo sapiens; 72 h, MTT, PC-3
Method: as §1, §2, §3

MG63 (osteosarcoma) = test: as above; type: cell-based, human; details: Homo sapiens; 72 h, MTT, MG-63
Method: as §1, §2, §3

[9] = system: CaES-17 (esophageal cancer cell); test: as above; type: cell-based, human; details: Homo sapiens, CaEs17; 72 h, MTT, CAES-17
Method: as §1, §2, §3

[10] = system: PANC-1 (pancreatic cancer); test: as above; type: cell-based, human; details: Homo sapiens; 72 h, MTT, PANC-1
Method: as §1, §2, §3

Row | IC50 [1] [µg/mL] | IC90 [1] [µg/mL] | IC50 [2] [µg/mL] | IC90 [2] [µg/mL] | IC50 (A549 (human lung cancer)) [µg/mL] | IC90 (A549 (human lung cancer)) [µg/mL] | IC50 [3] [µg/mL] | IC90 [3] [µg/mL] | IC50 [4] [µg/mL] | IC90 [4] [µg/mL] | IC50 [5] [µg/mL] | IC90 [5] [µg/mL] | IC50 [6] [µg/mL] | IC90 [6] [µg/mL] | IC50 [7] [µg/mL] | IC90 [7] [µg/mL] | IC50 [8] [µg/mL] | IC90 [8] [µg/mL] | IC50 [10] [µg/mL] | IC90 [10] [µg/mL] | Compound | other results
1 | 5.09 (≈ 6.91 µM) | 8.27 (≈ 11.2 µM) | 1.77 (≈ 2.4 µM) | 3.79 (≈ 5.14 µM) | 3.88 (≈ 5.27 µM) | 10.1 (≈ 13.7 µM) | 2.48 (≈ 3.37 µM) | 3.76 (≈ 5.1 µM) | 0.27 (≈ 0.366 µM) | 2 (≈ 2.71 µM) | 2.03 (≈ 2.75 µM) | 4.37 (≈ 5.93 µM) | 0.88 (≈ 1.19 µM) | 4.63 (≈ 6.28 µM) | 1.8 (≈ 2.44 µM) | 9.69 (≈ 13.1 µM) | 3.64 (≈ 4.94 µM) | 12.1 (≈ 16.5 µM) | 4.66 (≈ 6.32 µM) | 9.5 (≈ 12.9 µM) | COc1ccc2cc1Oc1ccc(cc1)C[C@H]1c3cc(c(OC)cc3CCN1C)Oc1c(OC)c(OC)c(COCC3CCOC3)c3c1[C@H](C2)N(C)CC3 (stereo partly drawn) [BS-TE-417] | IC50 (PC-3 (prostate cancer)): 4.1 µg/mL (≈ 5.56 µM); IC90 (PC-3 (prostate cancer)): 7.91 µg/mL (≈ 10.7 µM); IC50 (MG63 (osteosarcoma)): 1.06 µg/mL (≈ 1.44 µM); IC90 (MG63 (osteosarcoma)): 3.66 µg/mL (≈ 4.97 µM); IC50 [9]: 2.04 µg/mL (≈ 2.77 µM); IC90 [9]: 12 µg/mL (≈ 16.3 µM)
2 | 4.4 (≈ 5.89 µM) | 6.85 (≈ 9.17 µM) | 1.98 (≈ 2.65 µM) | 4.4 (≈ 5.89 µM) | 4.5 (≈ 6.02 µM) | 11 (≈ 14.8 µM) | 3.08 (≈ 4.12 µM) | 5.77 (≈ 7.73 µM) | 0.15 (≈ 0.201 µM) | 2.12 (≈ 2.84 µM) | 2.38 (≈ 3.19 µM) | 5 (≈ 6.69 µM) | 1.53 (≈ 2.05 µM) | 3.91 (≈ 5.23 µM) | 1.46 (≈ 1.95 µM) | 7.46 (≈ 9.99 µM) | 2.98 (≈ 3.99 µM) | 13.8 (≈ 18.5 µM) | 4.57 (≈ 6.12 µM) | 9.5 (≈ 12.7 µM) | COc1ccc2cc1Oc1ccc(cc1)C[C@H]1c3cc(c(OC)cc3CCN1C)Oc1c(OC)c(OC)c(COCCn3ccnc3)c3c1[C@H](C2)N(C)CC3 [BS-TE-418] | IC50 (PC-3 (prostate cancer)): 4.98 µg/mL (≈ 6.67 µM); IC90 (PC-3 (prostate cancer)): 9.43 µg/mL (≈ 12.6 µM); IC50 (MG63 (osteosarcoma)): 1.48 µg/mL (≈ 1.98 µM); IC90 (MG63 (osteosarcoma)): 4.45 µg/mL (≈ 5.96 µM); IC50 [9]: 1.71 µg/mL (≈ 2.29 µM); IC90 [9]: 9.9 µg/mL (≈ 13.3 µM)
3 | – | – | – | – | 1.66 (≈ 2.55 µM) | 5.1 (≈ 7.82 µM) | – | – | – | – | – | – | 1.64 (≈ 2.52 µM) | 4 (≈ 6.14 µM) | 0.8 (≈ 1.23 µM) | 2.78 (≈ 4.27 µM) | – | – | 5.07 (≈ 7.78 µM) | 10.7 (≈ 16.4 µM) | COc1ccc2cc1Oc1ccc(cc1)C[C@H]1c3cc(c(OC)cc3CCN1C)Oc1c(OC)c(OC)c(CN)c3c1[C@H](C2)N(C)CC3 [BS-TE-361] | –
4 | 9.67 (≈ 14.2 µM) | 15.1 (≈ 22.2 µM) | 9.8 (≈ 14.4 µM) | > 10 | > 16 | > 16 | 4.71 (≈ 6.93 µM) | 7.88 (≈ 11.6 µM) | 0.35 (≈ 0.515 µM) | 3.31 (≈ 4.87 µM) | 6.87 (≈ 10.1 µM) | 22.1 (≈ 32.5 µM) | 1.8 (≈ 2.65 µM) | 16 (≈ 23.5 µM) | 5.64 (≈ 8.3 µM) | 16 (≈ 23.5 µM) | 9.14 (≈ 13.4 µM) | > 16 | > 10 | > 10 | COc1ccc2cc1Oc1ccc(cc1)C[C@H]1c3cc(c(OC)cc3CCN1C)Oc1c(OC)c(OC)c(CN(C)C)c3c1[C@H](C2)N(C)CC3 [BS-TE-341] | IC50 (MG63 (osteosarcoma)): 3.16 µg/mL (≈ 4.65 µM); IC90 (MG63 (osteosarcoma)): 9.8 µg/mL (≈ 14.4 µM); IC50 [9]: 4.8 µg/mL (≈ 7.06 µM); IC90 [9]: 25.8 µg/mL (≈ 37.9 µM)
5 | 1.72 (≈ 2.34 µM) | 2.76 (≈ 3.76 µM) | 1.6 (≈ 2.18 µM) | 2.17 (≈ 2.95 µM) | 2.98 (≈ 4.05 µM) | 7.85 (≈ 10.7 µM) | 2 (≈ 2.72 µM) | 3.92 (≈ 5.33 µM) | 0.06 (≈ 0.0816 µM) | 2 (≈ 2.72 µM) | 1.98 (≈ 2.69 µM) | 3.36 (≈ 4.57 µM) | 0.84 (≈ 1.14 µM) | 3.36 (≈ 4.57 µM) | 0.78 (≈ 1.06 µM) | 3.65 (≈ 4.97 µM) | 2 (≈ 2.72 µM) | 6.19 (≈ 8.42 µM) | 3.52 (≈ 4.79 µM) | 9.25 (≈ 12.6 µM) | COc1ccc2cc1Oc1ccc(cc1)C[C@H]1c3cc(c(OC)cc3CCN1C)Oc1c(OC)c(OC)c(CNc3nccs3)c3c1[C@H](C2)N(C)CC3 [BS-TE-320] | IC50 (MG63 (osteosarcoma)): 1.1 µg/mL (≈ 1.5 µM); IC90 (MG63 (osteosarcoma)): 2.18 µg/mL (≈ 2.97 µM); IC50 [9]: 2.11 µg/mL (≈ 2.87 µM); IC90 [9]: 12.2 µg/mL (≈ 16.6 µM)
